Measurements published in patent US12697322B2, “Methods of treating cancer using androgen receptor antagonists” (Garvan Institute of Medical Research, priority 2019, dated 2026).
Entries after “also recorded” stand apart in the source; their conditions may differ.

Legend:
[1] = tested on: HMLER-CD44Hi and HCC38 CD44Hi cells; assay: Tumoursphere formation assay; format: cell-based, human; settings: CD44^Hi cells, counted at Day 14
Description: Single cell suspensions were plated in ultra-low attachment 96-well plates (Corning #CLS3474, New York, USA). HMLE-CD44^Hi cells were plated at a density of 50 cells/well in 100 μl of BPA-free MEGM media (Lonza # CC-3150, Basal, Switzerland). HCC38-CD44^Hi cells were plated at a density of 100 cells/well in serum-free RPMI with 1% penicillin/streptomycin, 20 ng/ml EGF, 20 ng/ml FGFb, 4 μg/mL heparin, 1×B27 and 1% methyl cellulose (Sigma). Media was replenished every five days by adding 50 μL of the appropriate tumoursphere media to each well. Tumourspheres were counted at Day 14. Results are presented as tumoursphere formation efficiency (number of spheres per well divided by the number of cells seeded per well). At Day 14, mammospheres were collected using a 40 μm cell strainer, washed with PBS and dissociated using trypsin-EDTA solution, and stained with anti-CD44PECy7 and anti-CD104PE as per standard FACS staining protocol.

[2] = tested on: CD44^Hi cells isolated from HMLER and HCC38 cell lines; assay: Cell proliferation assay (CyQuant); format: cell-based, human; settings: for CD44^Hi proliferation: CD44^Hi cells from HMLER and HCC38
Description: HMLER, HCC38 and MDA-MB-231 cells were plated in triplicate in 96-well plates at the densities outlined in Table 3. After 24 hours, cells were treated with various chemotherapeutic agents at the following doses: Doxorubicin (0 nM, 25 nM, 50 nM, 75 nM, 100 nM, 200 nM), Cisplatin (0 μg/ml, 0.1 μg/ml, 0.5 μg/ml, 1 μg/ml, 2 μg/ml, 5 μg/ml) or Docetaxel (0 nM, 1 nM, 5 nM, 10 nM, 25 nM, 50 nM); Androgen receptor agonists: Enobosarm (0 nM, 25 nM, 50 nM, 100 nM, 200 nM, 400 nM) or DHT (0 nM, 1 nM, 5 nM, 10 nM, 20 nM, 40 nM); or AR antagonist: Seviteronel (0 nM, 0.5 nM, 2 nM, 10 nM, 20 nM, 50 nM). Assays were harvested daily for five days by removing culture media and storing at −80′C. Cell proliferation was determined using CyQuant Cell Proliferation assay kit according to manufacturer's protocol (ThermoFisher Scientific) and fluorescence was measured at ~480 nm excitation and ~520 nm emission using a microplate reader.

[3] = tested on: MDA_MB-231-EGFP-Luc cells; assay: MDA-MB-231-EGFP-Luc orthotopic xenograft, Docetaxel and Seviteronel (Example 12, FIG. 12); format: in vivo, NSG female mice
Description: 1×10^6 MDA_MB-231-EGFP-Luc cells were injected orthotopically into the mammary fat pad of NSG female mice. 14 animals were enrolled per treatment arm to reach 80% statistical power. Tumour size was monitored by caliper measurement twice per week. At the time tumour size reached 50-150 mm^3 animals were randomized into treatment arms: Vehicle (Veh), Seviteronel (Sev), Docetaxel, Docetaxel+Seviteronel. Seviteronel (100 mg/kg) was administrated via oral gavage daily (6 days on+1 day off) for cycles of 4. Seviteronel was resuspended into a 5% DMSO, 0.1% Tween 80, Hydro-methylcellulose solution at a 5 mg/ml concentration. […] Growth kinetics were monitored through the course of treatment and plotted using graph-pad prism (V9). […] At treatment endpoint, animals were injected with luciferin (10 μl/gr of 15 mg/ml stock) and metastatic burden analyzed using an IVIS spectrum imager 10 min post injection. […]
1×10^6 MDA_MB-231-EGFP-Luc cells were injected orthotopically into the mammary fat pad of NSG female mice. […] Tumour size was monitored by caliper measurement twice per week. […] Growth kinetics were monitored through the course of treatment by caliper measurement. […] Metastasis development was monitored until animals reached ethical end-point by weekly IVIS imaging. […]

[4] = tested on: HMLER and HCC38 CD44^Lo cells; assay: Flow cytometry of chemotherapy-induced CD44^Lo to CD44^Hi plasticity; format: cell-based, human; settings: for induction of CD44^Lo-to-CD44^Hi transition by chemotherapy: one dose of chemotherapy for 72 hours; for blocking of chemotherapy-induced CD44^Lo-to-CD44^Hi transitions: with chemotherapy simultaneously for 72 hours, Seviteronel 10 μM
Source text: Cells were stained and fixed as with DHT treatment.
Using purified populations of CD44^Lo cells (with no CD44^Hi fraction) the effects of chemotherapy on cellular plasticity was investigated using flow cytometry.

[5] = tested on: MDA-MB-231 EGFP-Luciferase cells; assay: MDA-MB-231 xenograft, Seviteronel and Docetaxel (Example 5, FIG. 11); format: in vivo, mice; settings: Seviteronel 100 mg/kg daily oral gavage, DTX 40 mg/kg i.p., 3 doses
Description: Forty-eight mice were enrolled in the experiment and randomized into 4 treatment arms: Vehicle (Veh), Seviteronel (Sev), Docetaxel (DTX) or combination therapy (Sev+Dtx). Animals were 6-8 weeks of age at the time of injection. MDA-MB-231 EGFP-Luciferase cells were cultured in DMEM 10% FBS 1% P/S. On the surgery date, 1×10^6 cells resuspended in 20% Matrigel/DMEM were injected unilaterally into the mammary fat pad. Tumour growth was monitored twice per week to establish growth kinetics. Five weeks post-injection, when tumour size ranged between 50-100 mm^3, animals were randomized to receive daily oral gavage with either vehicle (1% Carboxymethylcellulose, 0.1% Tween-80 and 5% DMSO) or Seviteronel (100 mg/kg). Animals were dosed from Monday to Saturday, leaving 1 day recovery per week. After one week, animals were again randomized within the Vehicle or Seviteronel groups to Control or Chemotherapy (DTX). […] Metastatic burden and tumour size was determined using the IVIS-spectrum imaging system. […] The presence of metastatic cells in each organ was additionally determined by FACS analysis (fluorescence activate cell sorting) using a panel of antibodies previously established in the lab (CD298-PE, CD44-PEcy7 and CD104EF660). Results were analyzed and graphed using Flowjo3 and prism 8. […] Metastatic incidence was analyzed applying two-way ANOVA uncorrected Fisher's LSD test.

[6] = tested on: HMLER-CD44Hi and HCC38 CD44Hi cells; assay: Tumoursphere formation assay; format: cell-based, human
AR full length (100 kDa) = assay: AR siRNA knockdown, western blot; format: cell-based, human; settings: HCC38 CD44^Hi cells, 20 nM siRNA, 72 h post transfection
Description: Protein was extracted from cell lysates using RIPA lysis buffer (sc-24948) or specific lysis buffer for phospho-proteins detection (20 mM Tris-HC1 pH 7.6, 137 mM NaCl, 1% NP40, 0.5% Na-deoxycholate, 10 mM NaF, 20 mM β-glycerophosphate, 1 mM Na-orthovanadate and 1:200 complete protease inhibitors). 25-30 μg of proteins were run in a 4-12% Bis-tris gel (Invitrogen). Proteins were transferred to a PVDF membrane (BioRad). After blocking with 5% BSA (w/v) and 0.05% (v/v) Tween-20 in PBS, the membranes were incubated overnight with the indicated antibodies, washed with PBS 0.05% (v/v) Tween-20 and incubated with the corresponding horseradish peroxidase-conjugated secondary antibodies (Cell Signaling; Dil 1/5000, Table 3) for 30 min. Blots were developed using Western Lightning Plus ECL (PerkinElmer) and FusionFx7 Digital Imager, Band intensities were quantified using Fiji (Schindelin et al., 2012) and results were represented relative to controls.
siRNAs targeting exon 1 and 7 of AR full length were designed in-house (SEQ ID NOs: 6 and 7). HCC38 CD44^Hi cells (10^5/well) were seeded in M6 plate wells 24 hours prior to siRNA transfection. 20 nM of siRNA CT, siRNA AR Ex1 or AR Ex7 were delivered using lipofectamine 3000 (Thermofisher) as per manufacturer instructions.

Which “tumoursphere formation (tumoursphere-forming efficiency)” value [1] does the source give for C[C@]12CC[C@H](O)CC1=CC[C@@H]1[C@@H]2CC[C@]2(C)C(c3cccnc3)=CC[C@@H]12 [Abiraterone, (3p)-17-(pyridin-3-yl) androsta-5, 16-dien-3-ol] here?
Its value is “decrease”.

What about the “CD44^Hi proliferation” value [2] of the same molecule?
Its value is “decreased CD44Hi proliferation; also recorded: decrease CD44^Hi proliferation”.

With CC(=O)O[C@@]12CO[C@@H]1C[C@H](O)[C@@]1(C)C(=O)[C@H](O)C3=C(C)[C@@H](OC(=O)[C@H](O)[C@@H](NC(=O)OC(C)(C)C)c4ccccc4)C[C@@](O)([C@@H](OC(=O)c4ccccc4)[C@H]21)C3(C)C [Docetaxel] as the molecule, how does the “animals clear of metastasis (metastasis free survival)” value ([3]; 10 weeks following commencement of second round of treatment (Day 77), IVIS) read?
The value was 0%.

And the “induction of CD44^Lo-to-CD44^Hi transition by chemotherapy” value [4]?
The value was “induce CD44^Lo cells to transition to the CD44^Hi state”.

What about the tumour growth [5] of the same molecule?
The tumour growth was “significantly reduces tumour growth compared to Seviteronel alone”.

Which “induction of CD44^Lo-to-CD44^Hi transition by chemotherapy” value [4] does the source give for COc1cccc2c1C(=O)c1c(O)c3c(c(O)c1C2=O)C[C@@](O)(C(=O)CO)C[C@@H]3O[C@H]1C[C@H](N)[C@H](O)[C@H](C)O1 [Doxorubicin] here?
Its value is “induce CD44^Lo cells to transition to the CD44^Hi state”.

For CNC(=O)c1ccc(N2C(=S)N(c3ccc(C#N)c(C(F)(F)F)c3)C(=O)C2(C)C)cc1F [Enzalutamide, 4-{3-[4-cyano-3-(trifluoromethyl)phenyl]-5,5-dimethyl-4-oxo-2-sulfanylideneimidazolidin-1-yl}-2-fluoro-iV-methylbenzamide], which “CD44^Hi proliferation” value [2] is on record?
The value was “decreased CD44Hi proliferation; also recorded: decrease CD44^Hi proliferation”.

What about the “treatment required to equal the effect of Seviteronel” value ([2]; CD44^Hi proliferation and tumoursphere formation) of the same molecule?
The value was “daily treatment of Enzalutamide was required to equal one dose of Seviteronel”.

And the “blocking of chemotherapy-induced CD44^Lo-to-CD44^Hi transitions” value [4]?
The value was “not as effective as Seviteronel”.

Which “tumoursphere formation (tumoursphere-forming efficiency)” value [1] does the source give for CC(C)[C@](O)(c1ccc2cc(OC(F)F)c(OC(F)F)cc2c1)c1c[nH]nn1 [Seviteronel, (1S)-1-[6,7-bis(difluoromethoxy)naphthalen-2-yl]-2-methyl-1-(2H-triazol-4-yl)propan-1-ol] here?
The value was “decrease; also recorded: dose-dependently inhibits tumoursphere-forming ability”.

What about the “CD44^Hi proliferation” value [2] of the same molecule?
Its value is “decreased CD44Hi proliferation; also recorded: decrease CD44^Hi proliferation; also recorded: inhibits the growth of CD44^Hi cells”.

And the “tumour growth compared with Veh (FIG. 12B)” value ([3]; Seviteronel 150 mg/kg/day 1st week then 100 mg/kg/day for 3 weeks, Dtx 20 mg/kg i.p. x3)?
The value was “significantly reduces tumour growth compared with Veh treatmet arm”.

What about the “blocking of chemotherapy-induced CD44^Lo-to-CD44^Hi transitions” value [4] of the same molecule?
The value was “blocks chemotherapy-induced CD44^Lo-to-CD44^Hi transitions; also recorded: inhibits chemotherapy-induced CD44Lo-to-CD44-Hi plasticity; also recorded: can be blocked”.

What about the size of tumorspheres [6] of the same molecule?
The size of tumorspheres was “reduces the size of tumorspheres”.

What about the tumour growth [5] of the same molecule?
The tumour growth was “significantly reduces tumour growth kinetics compared to control”.

With “AR Ex7: in-house siRNA targeting AR exon 7, SEQ ID NO: 7 (GGAACUCGAUCGUAUCAUUUU; listed as RNA, chemistry not given here)” as the molecule, how does the “expression of AR full length” value (AR full length (100 kDa)) read?
The value was “strong reduction”.

Which “expression of AR full length” value (AR full length (100 kDa)) does the source give for “siRNA AR Ex1: in-house siRNA against AR full length, SEQ ID NO: 6 (GCUUCUGGGUGUCACUAUGUU; listed as RNA, chemistry not given here)” here?
Its value is “strong reduction”.
